# Laboratory results as given in the supplement of paper PMC10307832.
# Columns and labels:
# Test in all cases: relative viability (nuclei count vs DMSO), 5 days (fraction); higher = more cells survive
# [1] = compound: COc1cc(-c2nn([C@H]3CC[C@H](N4CCN(C(C)=O)CC4)CC3)c3ncnc(N)c23)ccc1NC(=O)c1cc2ccccc2n1C + CC(=O)Nc1cccc(-n2c(=O)n(C3CC3)c(=O)c3c(Nc4ccc(I)cc4F)n(C)c(=O)c(C)c32)c1 [Trametinib] (partner 0.02 µM)
# Method in brief: (§1)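 Lung cancer cell lines in 1536-well plates were dosed by pin tool the day after seeding, either with one drug alone or with a fixed anchor-drug dose plus five library-drug doses (not always all listed) in √10 steps. After 5 days, cells were fixed and their nuclei stained in one step (final 0.05% Triton X-100, 1% formaldehyde, 1 ug/ml Hoechst), then counted on 4× images. Relative viability is the nuclei count in treated wells divided by that in vehicle wells. Values are medians of duplicate plates.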
# [2] = compound: CO[C@@H]1[C@H](N(C)C(=O)c2ccccc2)C[C@H]2O[C@]1(C)n1c3ccccc3c3c4c(c5c6ccccc6n2c5c31)C(=O)NC4 [Midostaurin] + CS(=O)(=O)CCNCc1ccc(-c2ccc3ncnc(Nc4ccc(OCc5cccc(F)c5)c(Cl)c4)c3c2)o1 [Lapatinib] (partner 2 µM)
# Method in brief: as §1
# [3] = compound: CO[C@@H]1[C@H](N(C)C(=O)c2ccccc2)C[C@H]2O[C@]1(C)n1c3ccccc3c3c4c(c5c6ccccc6n2c5c31)C(=O)NC4 [Midostaurin] + Cc1cc(Nc2cc(N3CCN(C)CC3)nc(Sc3ccc(NC(=O)C4CC4)cc3)n2)n[nH]1 [Tozasertib] (partner 0.1 µM)
# Method in brief: as §1
# [4] = compound: CO[C@@H]1[C@H](N(C)C(=O)c2ccccc2)C[C@H]2O[C@]1(C)n1c3ccccc3c3c4c(c5c6ccccc6n2c5c31)C(=O)NC4 [Midostaurin] + CS(=O)(=O)N1CCN(Cc2cc3nc(-c4cccc5[nH]ncc45)nc(N4CCOCC4)c3s2)CC1 [Pictilisib] (partner 1 µM)
# Method in brief: as §1
# [5] = compound: CO[C@@H]1[C@H](N(C)C(=O)c2ccccc2)C[C@H]2O[C@]1(C)n1c3ccccc3c3c4c(c5c6ccccc6n2c5c31)C(=O)NC4 [Midostaurin] + CC(=O)Nc1cccc(-n2c(=O)n(C3CC3)c(=O)c3c(Nc4ccc(I)cc4F)n(C)c(=O)c(C)c32)c1 [Trametinib] (partner 0.02 µM)
# Method in brief: as §1
cell line,measurement,setting,value
UMC-11,relative viability,[1]; first compound 0.0128 µM,0.654
same,relative viability,[1]; first compound 0.04048 µM,0.689
same,relative viability,[1]; first compound 0.128 µM,0.67
same,relative viability,[1]; first compound 1.28 µM,0.661
same,relative viability,[2]; first compound 0.01 µM,0.936
same,relative viability,[2]; first compound 0.03162 µM,0.836
same,relative viability,[2]; first compound 0.1 µM,0.937
same,relative viability,[2]; first compound 0.3162 µM,0.513
same,relative viability,[3]; first compound 0.01 µM,0.208
same,relative viability,[3]; first compound 0.03162 µM,0.18
same,relative viability,[3]; first compound 0.1 µM,0.196
same,relative viability,[3]; first compound 0.3162 µM,0.174
same,relative viability,[4]; first compound 0.01 µM,0.859
same,relative viability,[4]; first compound 0.03162 µM,0.602
same,relative viability,[4]; first compound 0.1 µM,0.871
same,relative viability,[4]; first compound 0.3162 µM,0.663
same,relative viability,[5]; first compound 0.01 µM,0.698
same,relative viability,[5]; first compound 0.03162 µM,0.656
same,relative viability,[5]; first compound 0.1 µM,0.691
same,relative viability,[5]; first compound 0.3162 µM,0.562
